# According to patent publication US20060069132A1, “Azolecarboxamide herbicides” (priority 2004, published 2006):
# Legend:
# Assay in all cases: Test C pre-/postemergence herbicide test
# bermudagrass = assay type: in vivo, Cynodon dactylon
# Summary of the method: (§1)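 Pre/post spray; non-phytotoxic solvent + surfactant. Post-timing 1–4 leaves, 2–18 cm. Read-out: visual % control vs untreated, day 12–14, greenhouse.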
# Surinam grass = assay type: in vivo, Urochloa decumbens; conditions: preemergence
# Summary of the method: as §1
# cocklebur = assay type: in vivo, Xanthium strumarium; conditions: preemergence
# Summary of the method: as §1
# corn = assay type: in vivo, Zea mays; conditions: preemergence
# Summary of the method: as §1
# large crabgrass = assay type: in vivo, Digitaria sanguinalis; conditions: preemergence
# Summary of the method: as §1
# giant foxtail = assay type: in vivo, Setaria faberi; conditions: preemergence
# Summary of the method: as §1
# goosegrass = assay type: in vivo, Eleusine indica; conditions: preemergence
# Summary of the method: as §1
# kochia = assay type: in vivo, Kochia scoparia; conditions: preemergence
# Summary of the method: as §1
# [1] = system: common (oilseed) sunflower; assay type: in vivo, Helianthus annuus; conditions: preemergence
# Summary of the method: as §1
# [2] = 125 g ai/ha, scale 0 (no effect) to 100 (complete control), visual, 12 to 14 days
# [3] = 500 g ai/ha, scale 0 to 100 (0 no effect, 100 complete control), visual, 12 to 14 days
smiles,measurement,setting,value
CCC(=NO)c1cccc(NC(=O)c2cc(C(C)(C)C)nn2C)c1 [Compound 118],"Plant response rating, Bermudagrass","bermudagrass; 16 g ai/ha, scale 0 to 100, 0 no effect, 100 complete control, last section of Table C (species set of preemergence test)",0
same,"Plant response rating, Bermudagrass","bermudagrass; 31 g ai/ha, preemergence, scale 0 to 100",30
same,"Plant response rating (0 = no effect, 100 = complete control), Bermudagrass","bermudagrass; 62 g ai/ha, preemergence",90
same,"Plant response rating, Bermudagrass","bermudagrass; 125 g ai/ha, scale 0 (no effect) to 100 (complete control), visual, 12 to 14 days, preemergence",100
same,"Plant response rating, Surinam Grass","Surinam grass; 31 g ai/ha, scale 0 to 100",20
same,"Plant response rating, Surinam Grass",Surinam grass; [2],20
same,"Plant response rating, Cocklebur","cocklebur; 31 g ai/ha, scale 0 to 100",0
same,"Plant response rating (0 = no effect, 100 = complete control), Cocklebur",cocklebur; 62 g ai/ha,20
same,"Plant response rating, Cocklebur",cocklebur; [2],20
same,"Plant response rating, Corn","corn; 31 g ai/ha, scale 0 to 100",0
same,"Plant response rating (0 = no effect, 100 = complete control), Corn",corn; 62 g ai/ha,0
same,"Plant response rating, Corn",corn; [2],10
same,"Plant response rating, Crabgrass, Large","large crabgrass; 31 g ai/ha, scale 0 to 100",10
same,"Plant response rating (0 = no effect, 100 = complete control), Crabgrass, Large",large crabgrass; 62 g ai/ha,70
same,"Plant response rating, Crabgrass, Large",large crabgrass; [2],100
same,"Plant response rating, Foxtail, Giant","giant foxtail; 31 g ai/ha, scale 0 to 100",0
same,"Plant response rating (0 = no effect, 100 = complete control), Foxtail, Giant",giant foxtail; 62 g ai/ha,0
same,"Plant response rating, Foxtail, Giant",giant foxtail; [2],10
same,"Plant response rating, Goosegrass","goosegrass; 31 g ai/ha, scale 0 to 100",20
same,"Plant response rating (0 = no effect, 100 = complete control), Goosegrass",goosegrass; 62 g ai/ha,20
same,"Plant response rating, Goosegrass",goosegrass; [2],80
same,"Plant response rating, Kochia","kochia; 31 g ai/ha, scale 0 to 100",10
same,"Plant response rating (0 = no effect, 100 = complete control), Kochia",kochia; 62 g ai/ha,20
same,"Plant response rating, Kochia",kochia; [2],20
same,"Plant response rating, Sunflower","[1]; 31 g ai/ha, scale 0 to 100",0
same,"Plant response rating (0 = no effect, 100 = complete control), Sunflower",[1]; 62 g ai/ha,0
same,"Plant response rating, Sunflower",[1]; [2],20
Cc1nn(C(C)(C)C)nc1C(=O)Nc1cccc(C(=O)N(C)C)c1 [Compound 391],"Plant response rating, Bermudagrass","bermudagrass; 62 g ai/ha, preemergence, scale 0 to 100, 0 no effect, 100 complete control",95
same,"Plant response rating (0 = no effect, 100 = complete control), Bermudagrass","bermudagrass; 125 g ai/ha, preemergence",95
same,"Plant response rating, Bermudagrass","bermudagrass; 250 g ai/ha, scale 0-100, preemergence",95
same,"Plant response rating, Bermudagrass","bermudagrass; 500 g ai/ha, scale 0 to 100 (0 no effect, 100 complete control), visual, 12 to 14 days, preemergence",95
same,"Plant response rating, Surinam Grass","Surinam grass; 62 g ai/ha, scale 0 to 100",85
same,"Plant response rating (0 = no effect, 100 = complete control), Surinam Grass",Surinam grass; 125 g ai/ha,95
same,"Plant response rating, Surinam Grass","Surinam grass; 250 g ai/ha, scale 0-100",95
same,"Plant response rating, Surinam Grass",Surinam grass; [3],95
same,"Plant response rating, Cocklebur","cocklebur; 62 g ai/ha, scale 0 to 100",20
same,"Plant response rating (0 = no effect, 100 = complete control), Cocklebur",cocklebur; 125 g ai/ha,45
same,"Plant response rating, Cocklebur","cocklebur; 250 g ai/ha, scale 0-100",80
same,"Plant response rating, Cocklebur",cocklebur; [3],80
same,"Plant response rating, Corn","corn; 62 g ai/ha, scale 0 to 100",80
same,"Plant response rating (0 = no effect, 100 = complete control), Corn",corn; 125 g ai/ha,80
same,"Plant response rating, Corn","corn; 250 g ai/ha, scale 0-100",85
same,"Plant response rating, Corn",corn; [3],85
same,"Plant response rating, Crabgrass, Large","large crabgrass; 62 g ai/ha, scale 0 to 100",98
same,"Plant response rating (0 = no effect, 100 = complete control), Crabgrass, Large",large crabgrass; 125 g ai/ha,100
same,"Plant response rating, Crabgrass, Large","large crabgrass; 250 g ai/ha, scale 0-100",100
same,"Plant response rating, Crabgrass, Large",large crabgrass; [3],100
same,"Plant response rating, Foxtail, Giant","giant foxtail; 62 g ai/ha, scale 0 to 100",85
same,"Plant response rating (0 = no effect, 100 = complete control), Foxtail, Giant",giant foxtail; 125 g ai/ha,100
same,"Plant response rating, Foxtail, Giant","giant foxtail; 250 g ai/ha, scale 0-100",100
same,"Plant response rating, Foxtail, Giant",giant foxtail; [3],100
same,"Plant response rating, Goosegrass","goosegrass; 62 g ai/ha, scale 0 to 100",80
same,"Plant response rating (0 = no effect, 100 = complete control), Goosegrass",goosegrass; 125 g ai/ha,85
same,"Plant response rating, Goosegrass","goosegrass; 250 g ai/ha, scale 0-100",90
same,"Plant response rating, Goosegrass",goosegrass; [3],95
same,"Plant response rating, Kochia","kochia; 62 g ai/ha, scale 0 to 100",100
same,"Plant response rating (0 = no effect, 100 = complete control), Kochia",kochia; 125 g ai/ha,100
same,"Plant response rating, Kochia","kochia; 250 g ai/ha, scale 0-100",100
same,"Plant response rating, Kochia",kochia; [3],100
same,"Plant response rating, Sunflower","[1]; 62 g ai/ha, scale 0 to 100",50
same,"Plant response rating (0 = no effect, 100 = complete control), Sunflower",[1]; 125 g ai/ha,95
same,"Plant response rating, Sunflower","[1]; 250 g ai/ha, scale 0-100",100
same,"Plant response rating, Sunflower",[1]; [3],100
